In BindingDB's records for doi:10.1021/jm00092a019 (Bristol-Myers Squibb Pharmaceutical Research Institute, 1992) one finds EC50 data, which are given here for 66 compounds.

Test [1] is described as follows: Inhibition of platelet aggregation using adenosine diphosphate (ADP) as activating agent in human platelet rich plasma (PRP).
A short description of test [2]: Inhibition of platelet aggregation using Adenosine diphosphate (ADP) as activating agent in rabbit platelet rich plasma (PRP).
Test in test [3]: as above
This is another data set of the same source.

Test [4] is described as follows: Inhibition of platelet aggregation using adenosine diphosphate (ADP) as activating agent in human platelet rich plasma PRP.
Test [5] deals with P2Y purinoceptor 12 (Homo sapiens, UniProt Q9H244). Put plainly: Inhibition of platelet aggregation using adenosine diphosphate (ADP) as activating agent in human platelet rich plasma (PRP).
Sequence of P2Y purinoceptor 12 (Q9H244 whole entry): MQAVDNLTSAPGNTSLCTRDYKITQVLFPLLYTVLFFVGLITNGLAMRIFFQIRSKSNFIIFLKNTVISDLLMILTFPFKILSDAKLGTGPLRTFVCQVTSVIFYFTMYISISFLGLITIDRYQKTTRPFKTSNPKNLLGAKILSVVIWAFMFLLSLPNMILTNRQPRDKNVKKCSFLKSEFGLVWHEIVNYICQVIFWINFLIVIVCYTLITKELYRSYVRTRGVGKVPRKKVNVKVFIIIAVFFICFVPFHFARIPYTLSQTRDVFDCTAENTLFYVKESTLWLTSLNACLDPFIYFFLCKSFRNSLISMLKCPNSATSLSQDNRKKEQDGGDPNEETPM
Test [6] in a line: Inhibition of ADP-induced platelet aggregation in rabbit platelet rich plasma (PRP).

Molecules are shown by their SMILES.

Usually EC50 stands for the concentration at which the effect is half-maximal. Low readings indicate a more potent agent, high ones a less potent agent.

`CN(C(=O)CCCCOc1ccc2nc3[nH]c(=O)[nH]c3cc2c1)C1CCCCCC1`: the concentration for a half-maximal effect (EC50) came out at 1 nM in test [1] and 5 nM in test [2]. Regarding `O=C(CCCOc1ccc2nc3[nH]c(=O)[nH]c3cc2c1)NC1CCCCC1`, the EC50 in test [3] was determined as 40 nM.

As to `N#CCCCOc1ccc2nc3[nH]c(=O)[nH]c3cc2c1`, the EC50 in test [1] is 600 nM; in test [2], 180 nM. In test [3], `COC(=O)CCCCOc1ccc2nc3[nH]c(=O)[nH]c3cc2c1` registered an EC50 of 950 nM. In the case of `CN(C(=O)CCCOc1ccc2nc3[nH]c(=O)[nH]c3cc2c1)C1CCCCC1`, in test [1], a half-maximal effect (EC50) was put at 7 nM.

Compound `COC(=O)CCCOc1ccc2nc3c(cc2c1)n(C)c(=O)n3C` registered an EC50 in test [3] of more than 87500 nM. On to `COC(=O)CCCCOc1ccc2nc3[nH]c(=O)n(C)c3cc2c1`, for which the EC50 in test [3] was found to be 9110 nM. For the compound `CN(C(=O)CCCCc1ccc2nc3[nH]c(=O)[nH]c3cc2c1)C1CCCCC1`, the EC50 in test [1] was determined as 1100 nM; in test [2], 210 nM. In test [3], `CN(C(=O)CCCCOc1ccc2nc3[nH]c(=O)n(C)c3cc2c1)C1CCCCC1` came in with an EC50 of 150 nM. With `O=C(CCCCc1ccc2nc3[nH]c(=O)[nH]c3cc2c1)N1CCCCC1`, the results for the half-maximal effective concentration (EC50) in test [1] and in test [3] were 15500 nM and 420 nM, respectively. Turning to `Cn1c(=O)[nH]c2nc3ccc(OCCCCC(=O)O)cc3cc21`, the 50% effective concentration (EC50) in test [3] is more than 100000 nM.

The compound `COC(=O)C=CC=Cc1ccc2nc3[nH]c(=O)[nH]c3cc2c1` returned an EC50 in test [3] of 2690 nM. In the case of `O=C(O)CCCCOc1ccc2nc3[nH]c(=O)[nH]c3cc2c1`, the half-maximal effective concentration (EC50) in test [1] and in test [3] was more than 106000 nM each time. Turning to `CNC(=O)CCCOc1ccc2nc3[nH]c(=O)[nH]c3cc2c1`, the figures for the EC50 in test [1] and in test [3] were 71600 nM and 1330 nM, respectively.

Turning to `COC(=O)CCCOc1ccc2nc3c(cc2c1)[nH]c(=O)n3C`, the EC50 came to 29800 nM in test [1] and 360 nM in test [3].

On to `NC(=O)CCCOc1ccc2nc3[nH]c(=O)[nH]c3cc2c1`, for which the EC50 in test [1] stood at 3020 nM; in test [3] it was 6040 nM. Compound `O=C(CCCOc1ccc2nc3[nH]c(=O)[nH]c3cc2c1)NC1CCCC1` yielded an EC50 in test [3] of 420 nM. On the same count and under the same terms, as for `O=C(O)CCCCCOc1ccc2nc3[nH]c(=O)[nH]c3cc2c1`, the figure is 3170 nM. As for `O=c1[nH]c2cc3cc(OCCCCc4nnn[nH]4)ccc3nc2[nH]1`, the EC50 in test [1] is 51000 nM; in test [3], 5400 nM.

As for `O=C(O)CN(C(=O)CCCOc1ccc2nc3[nH]c(=O)[nH]c3cc2c1)C1CCCCC1`, the values for the EC50 in test [1] and in test [2] were 9600 nM and 910 nM, respectively. Turning to `O=C(O)C1CCN(C(=O)CCCOc2ccc3nc4[nH]c(=O)[nH]c4cc3c2)CC1`, the EC50 in test [1] amounted to 45300 nM; in test [2], 380 nM. `CC(=O)OCCOc1ccc2nc3[nH]c(=O)[nH]c3cc2c1` gave a half-maximal effective concentration (EC50) in test [3] of 870 nM. Same read-out and setting: as for `Cn1c(=O)[nH]c2nc3ccc(OCCCC(=O)N4CCCCC4)cc3cc21`, the figure is 10900 nM. Take `O=C(CCCOc1ccc2nc3[nH]c(=O)[nH]c3cc2c1)NC1CCCCCC1`: the EC50 in test [1] came out at 16 nM; in test [2] it was 390 nM.

The compound `CCOC(=O)C1CCN(C(=O)CCCOc2ccc3nc4[nH]c(=O)[nH]c4cc3c2)CC1` yielded a half-maximal effective concentration (EC50) in test [3] of 210 nM. On the same count and under the same terms, as for `CC(=O)OCCCCOc1ccc2nc3[nH]c(=O)[nH]c3cc2c1`, the figure is 950 nM.

For the compound `O=c1[nH]c2cc3cc(OCCCCS(=O)(=O)c4ccccc4)ccc3nc2[nH]1`, the figures for the EC50 in test [1] and in test [2] were 10 nM and 180 nM, respectively. Take `CN(C(=O)CCCCCOc1ccc2nc3[nH]c(=O)[nH]c3cc2c1)C1CCCCC1`: the results for the EC50 in test [1] and in test [2] were 540 nM and 20 nM, respectively. For the compound `Cn1c(=O)[nH]c2nc3ccc(OCCCC(=O)NC4CCCCC4)cc3cc21`, the EC50 in test [1] worked out at 7840 nM; in test [3] it was 180 nM.

`O=c1[nH]c2cc3cc(CCCCCO)ccc3nc2[nH]1` showed an EC50 in test [3] of 2950 nM. On the same count and under the same terms, the same measure for `CN(C(=O)CCCOc1ccc2nc3[nH]c(=O)[nH]c3cc2c1)C1CCCCCC1`: 60 nM. Take `CN(C(=O)CCCOc1ccc2nc3[nH]c(=O)n(C)c3cc2c1)C1CCCCCC1`: the EC50 stood at 1220 nM in test [1] and 70 nM in test [3]. As for `O=C(O)CCCCc1ccc2nc3[nH]c(=O)[nH]c3cc2c1`, the EC50 in test [1] was more than 112000 nM; in test [2], 63100 nM. `CCOC(=O)CCc1ccc2nc3[nH]c(=O)[nH]c3cc2c1` registered a concentration giving a half-maximal response (EC50) in test [3] of 440 nM.

In the case of `O=C(CCCOc1ccc2nc3[nH]c(=O)[nH]c3cc2c1)NC12C[C@H]3C[C@@H](C1)C[C@@H](C2)C3`, the concentration for a half-maximal effect (EC50) came out at 20 nM in test [1] and 120 nM in test [2]. For the compound `CCOC(=O)CCCOc1ccc2nc3[nH]c(=O)[nH]c3cc2c1`, the EC50 in test [1] turned out to be 38 nM; in test [2], 630 nM. As to `O=C(O)COc1ccc2nc3[nH]c(=O)[nH]c3cc2c1`, in test [3], the EC50 worked out at 1910 nM. Still for that read-out and setting: as for `O=c1[nH]c2cc3cc(CCCO)ccc3nc2[nH]1`, the figure is 2470 nM. In the case of `COC(=O)CCCOc1ccc2nc3[nH]c(=O)[nH]c3cc2c1`, the EC50 in test [4] turned out to be 83 nM; in test [2], 66 nM. In test [3], `CCOC(=O)CN(C(=O)CCCOc1ccc2nc3[nH]c(=O)[nH]c3cc2c1)C1CCCCC1` had a 50% effective concentration (EC50) of 20 nM.

In test [3], `CC(=O)OCCCOc1ccc2nc3[nH]c(=O)[nH]c3cc2c1` registered a half-maximal effective concentration (EC50) of 330 nM. For `COC(=O)CN(C(=O)CCCOc1ccc2nc3[nH]c(=O)[nH]c3cc2c1)C1CCCCC1`, the EC50 was determined as 0.7 nM in test [1] and 6 nM in test [3]. With `Cn1c(=O)[nH]c2cc3cc(OCCCC(=O)O)ccc3nc21`, the EC50 is more than 26500 nM in test [1] and 1660 nM in test [2]. In turn, `CN(C)C(=O)CCCOc1ccc2nc3[nH]c(=O)[nH]c3cc2c1` returned an EC50 in test [1] of 190 nM. `CCOCCOc1ccc2nc3[nH]c(=O)[nH]c3cc2c1`: the EC50 in test [3] came to 4840 nM. Still for that read-out and setting: the same measure for `CCOC(=O)C=Cc1ccc2nc3[nH]c(=O)[nH]c3cc2c1`: 440 nM; for `COC(=O)CCCCCOc1ccc2nc3[nH]c(=O)[nH]c3cc2c1`: 90 nM. Still for that read-out and setting: as for `CN(C(=O)CCCOc1ccc2nc3[nH]c(=O)n(C)c3cc2c1)C1CCCCC1`, the figure is 50 nM; as for `O=c1[nH]c2cc3cc(OCCCO)ccc3nc2[nH]1`, 770 nM. Consider `CN(C(=O)CCCCOc1ccc2nc3[nH]c(=O)n(C)c3cc2c1)C1CCCCCC1`, for which the values for the concentration giving a half-maximal response (EC50) in test [1] and in test [2] were 540 nM and 140 nM, respectively.

With `CC(=O)CCCOc1ccc2nc3[nH]c(=O)[nH]c3cc2c1`, the midpoint of the response in test [3], the EC50, lay at 1400 nM. For `CN(C(=O)CCCOc1ccc2c(c1)CN1CC(=O)NC1=N2)C1CCCCC1`, the concentration giving a half-maximal response (EC50) in test [1] is 440 nM; in test [2] it was 100 nM. As to `CN(C(=O)CCCOc1ccc2nc3c(cc2c1)n(C)c(=O)n3C)C1CCCCC1`, a half-maximal effect in test [3] (EC50) was put at 26700 nM. Same read-out and setting: the same measure for `O=c1[nH]c2cc3cc(OCCCS(=O)(=O)c4ccccc4)ccc3nc2[nH]1`: 390 nM. For the compound `O=C(O)CCCOc1ccc2c(c1)CN1CC(=O)NC1=N2`, the figures for the EC50 in test [1] and in test [2] were more than 100000 nM and 6910 nM, respectively. For `COC(=O)CCCCc1ccc2nc3[nH]c(=O)[nH]c3cc2c1` the same measures were 3000 nM and 430 nM.

Turning to `O=c1[nH]c2cc3cc(OCCCc4nnn[nH]4)ccc3nc2[nH]1`, the half-maximal effective concentration (EC50) in test [1] is more than 100000 nM; in test [2] it was 6320 nM. For the compound `Cn1c(=O)[nH]c2nc3ccc(OCCCC(=O)O)cc3cc21`, in test [3], the concentration giving a half-maximal response (EC50) is more than 106000 nM. As for `O=C(CCCCc1ccc2nc3[nH]c(=O)[nH]c3cc2c1)NC12C[C@H]3C[C@@H](C1)C[C@@H](C2)C3`, the figures for the EC50 in test [1] and in test [2] were 5260 nM and 960 nM, respectively. As to `N#CCCCCOc1ccc2nc3[nH]c(=O)[nH]c3cc2c1`, the EC50 in test [3] is 1320 nM. Still for that read-out and setting: as for `Cn1c(=O)[nH]c2nc3ccc(OCCCS(=O)(=O)c4ccccc4)cc3cc21`, the figure is 50300 nM.

In turn, `CN(C(=O)CCCCOc1ccc2nc3[nH]c(=O)[nH]c3cc2c1)C1CCCCC1` came in with an EC50 in test [3] of 8 nM. Take `CN(C(=O)CCCOc1ccc2nc3c(cc2c1)[nH]c(=O)n3C)C1CCCCC1`: the EC50 in test [1] was 33000 nM; in test [2] it was 520 nM.

In test [3], `CCOC(=O)COc1ccc2nc3[nH]c(=O)[nH]c3cc2c1` yielded an EC50 of 24300 nM. With `O=C(CCCOc1ccc2nc3[nH]c(=O)[nH]c3cc2c1)N1CCCCC1`, the EC50 in test [5] was determined as 130 nM. For the compound `CC(O)CCCOc1ccc2nc3[nH]c(=O)[nH]c3cc2c1` (stereo unspecified), the EC50 worked out at 520 nM in test [6] and 100 nM in test [1].
